Assay results reported in ChEMBL document CHEMBL4219215, “Discovery of {4-[4,9-bis(ethyloxy)-1-oxo-1,3-dihydro-2H-benzo[f]isoindol-2-yl]-2-fluorophenyl}acetic acid (GSK726701A), a novel EP4 receptor partial agonist for the treatment of pain” (Bioorg Med Chem Lett, 2018).
Calls of active or inactive are those of the source. The rule behind the calls is not given here.

Legend:
[1] = target: T1, Prostaglandin E2 receptor EP4 subtype (Homo sapiens, UniProt P35408); test: Partial agonist activity at human EP4 receptor expressed in HEK293-AEQ17 cells assessed as cAMP accumulation by aequorin luminescence assay; assay type: functional, cell-based
T1 sequence (P35408 whole entry): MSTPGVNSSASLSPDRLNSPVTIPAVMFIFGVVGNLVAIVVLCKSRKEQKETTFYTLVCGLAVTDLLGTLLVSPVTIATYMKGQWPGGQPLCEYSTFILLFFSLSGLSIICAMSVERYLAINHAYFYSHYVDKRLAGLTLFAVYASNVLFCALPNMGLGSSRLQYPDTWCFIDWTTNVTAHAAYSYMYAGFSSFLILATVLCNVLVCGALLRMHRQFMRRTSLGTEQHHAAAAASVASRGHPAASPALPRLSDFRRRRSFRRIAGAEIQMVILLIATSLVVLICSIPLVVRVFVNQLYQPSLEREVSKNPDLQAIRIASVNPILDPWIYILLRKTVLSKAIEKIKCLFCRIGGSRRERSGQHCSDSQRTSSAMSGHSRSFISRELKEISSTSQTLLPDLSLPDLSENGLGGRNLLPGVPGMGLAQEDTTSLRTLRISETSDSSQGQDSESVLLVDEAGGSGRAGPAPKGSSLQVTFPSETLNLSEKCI

Rattus norvegicus [2] = test: Analgesic activity in rat model of Freund's complete adjuvant-induced acute inflammatory pain assessed as reversal of FCA-induced hypersensitivity at 3 mg/kg, po relative to untreated control; assay type: functional
[3] = target: T1, Prostaglandin E2 receptor EP4 subtype; test: Displacement of [3H]PGE2 from human EP4 receptor expressed in HEK 293 (EBNA) cell membranes incubated for 60 mins by scintillation counting method
Rattus norvegicus [4] = test: Analgesic activity in rat model of Freund's complete adjuvant-induced acute inflammatory pain assessed as reversal of FCA-induced hypersensitivity at 10 mg/kg, po relative to untreated control; assay type: functional
Cytochrome P450 1A2 = target: T2, Cytochrome P450 1A2 (Homo sapiens, UniProt P05177); test: Inhibition of human recombinant CYP1A2; assay type: ADME
T2 sequence (P05177 whole entry): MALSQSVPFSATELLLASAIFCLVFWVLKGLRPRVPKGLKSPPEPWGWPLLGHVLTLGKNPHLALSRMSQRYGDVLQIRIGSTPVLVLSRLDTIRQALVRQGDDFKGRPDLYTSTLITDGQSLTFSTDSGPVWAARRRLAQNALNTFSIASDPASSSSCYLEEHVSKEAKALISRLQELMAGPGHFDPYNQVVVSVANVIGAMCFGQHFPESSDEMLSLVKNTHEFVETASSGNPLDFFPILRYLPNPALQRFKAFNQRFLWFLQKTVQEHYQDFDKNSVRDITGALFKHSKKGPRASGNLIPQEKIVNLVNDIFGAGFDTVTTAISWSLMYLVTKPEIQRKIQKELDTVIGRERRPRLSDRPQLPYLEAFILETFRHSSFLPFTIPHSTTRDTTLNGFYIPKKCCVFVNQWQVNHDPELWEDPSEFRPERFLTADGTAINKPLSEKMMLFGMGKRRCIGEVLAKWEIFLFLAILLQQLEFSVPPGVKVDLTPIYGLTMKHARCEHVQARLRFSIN

Cytochrome P450 2C19 = Cytochrome P450 2C19 (Homo sapiens, UniProt P33261); test: Inhibition of human recombinant CYP2C19; assay type: ADME
Sequence of Cytochrome P450 2C19 (P33261 whole entry): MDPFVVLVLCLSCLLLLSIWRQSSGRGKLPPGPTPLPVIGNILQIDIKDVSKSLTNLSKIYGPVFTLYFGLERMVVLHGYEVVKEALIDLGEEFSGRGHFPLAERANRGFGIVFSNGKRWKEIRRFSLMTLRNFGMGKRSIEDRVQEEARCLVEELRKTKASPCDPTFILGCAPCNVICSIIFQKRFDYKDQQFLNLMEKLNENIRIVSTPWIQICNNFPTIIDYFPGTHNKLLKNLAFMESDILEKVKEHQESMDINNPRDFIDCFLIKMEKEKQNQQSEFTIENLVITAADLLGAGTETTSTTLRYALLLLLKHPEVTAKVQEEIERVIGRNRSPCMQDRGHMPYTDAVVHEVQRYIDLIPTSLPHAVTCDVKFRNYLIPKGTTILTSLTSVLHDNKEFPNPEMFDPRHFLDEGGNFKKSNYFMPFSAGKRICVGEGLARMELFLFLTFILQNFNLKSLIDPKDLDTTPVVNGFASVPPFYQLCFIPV

Cytochrome P450 2C9 = Cytochrome P450 2C9 (Homo sapiens, UniProt P11712); test: Inhibition of human recombinant CYP2C9; assay type: ADME
Sequence of Cytochrome P450 2C9 (P11712 whole entry): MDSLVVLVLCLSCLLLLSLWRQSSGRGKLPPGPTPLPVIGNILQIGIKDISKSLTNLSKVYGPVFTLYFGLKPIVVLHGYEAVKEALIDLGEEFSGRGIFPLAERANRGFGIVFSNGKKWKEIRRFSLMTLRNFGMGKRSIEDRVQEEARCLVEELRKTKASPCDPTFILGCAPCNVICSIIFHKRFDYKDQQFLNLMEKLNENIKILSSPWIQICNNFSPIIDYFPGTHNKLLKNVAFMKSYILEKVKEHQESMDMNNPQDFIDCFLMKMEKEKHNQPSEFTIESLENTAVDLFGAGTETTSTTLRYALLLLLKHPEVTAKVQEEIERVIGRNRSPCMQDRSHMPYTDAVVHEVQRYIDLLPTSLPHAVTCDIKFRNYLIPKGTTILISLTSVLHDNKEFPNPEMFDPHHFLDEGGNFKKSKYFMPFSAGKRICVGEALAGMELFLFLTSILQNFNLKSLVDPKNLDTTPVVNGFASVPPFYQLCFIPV

Cytochrome P450 2D6 = Cytochrome P450 2D6 (Homo sapiens, UniProt P10635); test: Inhibition of human recombinant CYP2D6; assay type: ADME
Sequence of Cytochrome P450 2D6 (P10635 whole entry): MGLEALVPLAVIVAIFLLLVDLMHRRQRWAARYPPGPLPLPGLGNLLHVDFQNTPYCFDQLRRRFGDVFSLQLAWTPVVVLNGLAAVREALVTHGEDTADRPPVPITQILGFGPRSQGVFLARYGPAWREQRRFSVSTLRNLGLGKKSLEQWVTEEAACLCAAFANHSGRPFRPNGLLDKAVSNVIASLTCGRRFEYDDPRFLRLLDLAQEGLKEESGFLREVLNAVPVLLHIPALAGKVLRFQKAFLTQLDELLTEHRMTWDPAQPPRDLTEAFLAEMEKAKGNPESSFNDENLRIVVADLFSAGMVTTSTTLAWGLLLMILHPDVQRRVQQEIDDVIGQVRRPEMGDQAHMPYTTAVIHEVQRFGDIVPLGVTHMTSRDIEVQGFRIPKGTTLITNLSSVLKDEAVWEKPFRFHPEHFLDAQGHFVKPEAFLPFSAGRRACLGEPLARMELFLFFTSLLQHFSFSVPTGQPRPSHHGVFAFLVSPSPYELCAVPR

Cytochrome P450 3A4 [5] = target: T3, Cytochrome P450 3A4 (Homo sapiens, UniProt P08684); test: Inhibition of human recombinant CYP3A4 using DEF substrate; assay type: ADME
T3 sequence (P08684 whole entry): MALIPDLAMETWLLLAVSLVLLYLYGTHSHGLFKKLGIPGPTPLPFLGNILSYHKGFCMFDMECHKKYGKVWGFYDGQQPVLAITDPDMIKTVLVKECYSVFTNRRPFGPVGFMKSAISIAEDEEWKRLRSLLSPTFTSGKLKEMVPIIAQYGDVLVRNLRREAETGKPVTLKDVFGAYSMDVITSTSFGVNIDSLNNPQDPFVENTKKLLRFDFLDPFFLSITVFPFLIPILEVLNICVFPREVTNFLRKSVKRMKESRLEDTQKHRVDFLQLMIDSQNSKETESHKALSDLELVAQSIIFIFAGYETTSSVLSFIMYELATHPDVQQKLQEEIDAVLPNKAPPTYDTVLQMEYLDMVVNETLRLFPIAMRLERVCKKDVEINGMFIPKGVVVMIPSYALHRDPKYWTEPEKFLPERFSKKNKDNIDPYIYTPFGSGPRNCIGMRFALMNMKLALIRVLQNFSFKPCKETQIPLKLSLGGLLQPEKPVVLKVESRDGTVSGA

Cytochrome P450 3A4 [6] = target: T3, Cytochrome P450 3A4; test: Inhibition of human recombinant CYP3A4 using 7BQ substrate; assay type: ADME
[7] = Intrinsic clearance in rat liver microsomes; assay type: ADME, microsome
[8] = Intrinsic clearance in human liver microsomes; assay type: ADME, microsome
[9] = Blood clearance in rat at 1 mg/kg, po; assay type: ADME, organism-based
Rattus norvegicus [10] = test: Volume of distribution at steady state in rat at 1 mg/kg, […]; assay type: ADME, organism-based; conditions: in vivo
[11] = Half life in rat at 1 mg/kg, po; assay type: ADME, organism-based; conditions: in vivo
Rattus norvegicus [12] = test: Analgesic activity in orally dosed rat model of Freund's complete adjuvant-induced acute inflammatory pain assessed as reversal of FCA-induced hypersensitivity; assay type: functional; conditions: po
[13] = Total drug level in blood of orally dosed rat model of Freund's complete adjuvant-induced acute inflammatory pain assessed as reduction in reversal of hypersensitivity; assay type: ADME, organism-based; conditions: in vivo, po, read-out: Drug uptake
Rattus norvegicus [14] = test: Analgesic activity in rat model of Freund's complete adjuvant-induced acute inflammatory pain assessed as reversal of FCA-induced hypersensitivity at 10 mg/kg, po pre-challenged with 3 mg/kg, po selective EP4 antagonist GW627368X; assay type: functional, organism-based
Rattus norvegicus [15] = test: Analgesic activity in rat model of chronic constriction injury-induced neuropathic pain assessed as reversal of mechanical allodynia at 30 mg/kg dosed twice daily for 8 days relative to untreated control; assay type: functional; conditions: 192 h
Rattus norvegicus [16] = test: Analgesic activity in rat model of chronic joint pain assessed as reversal of pain by measuring weight bearing level at 30 mg/kg, po dosed twice daily for 5 days relative to untreated control; conditions: 120 h, read-out: INH

Row | Structure (SMILES) | EC50 [1] [nM] | Ki [3] [nM] | also measured
1 | CCOc1c2c(c(OCC)c3ccccc13)C(=O)N(c1ccc(CC(=O)O)cc1Cl)C2 | 5.01 |  | Activity (Rattus norvegicus [2]): 14%
2 | CCCCOc1c2c(c(OCCCC)c3ccccc13)C(=O)N(c1ccc(CC(=O)O)cc1)C2 | 200 | 2000 | 
3 | CCOc1c2c(c(OCC)c3ccccc13)CN(c1ccc(CC(=O)O)cc1)C2 | 251 | 631 | 
4 | CCOc1c2c(c(OCC)c3cc(F)ccc13)C(=O)N(c1ccc(CC(=O)O)cc1)C2=O | 79.4 |  | 
5 | COc1c2c(c(OC)c3ccccc13)C(=O)N(c1ccc(CC(=O)O)cc1)C2=O | 200 |  | 
6 | CCOc1c2c(c(OCC)c3ccccc13)C(=O)N(c1ccc(CC(=O)O)c(Cl)c1)C2 | > 1000 |  | 
7 | CCOc1c2c(c(OCC)c3ccccc13)C(=O)N(c1ccc(CC(=O)O)cc1F)C2 | 3.98 |  | Activity (Rattus norvegicus [2]): 5%
8 | CCOc1c2c(c(OCC)c3ccccc13)C(=O)N(c1ccc(CC(=O)O)cc1OC)C2 | 10 |  | 
9 | CCOc1c2c(c(OCC)c3ccccc13)C(=O)N(c1ccc(CC(=O)O)cc1C(F)(F)F)C2 | 50.1 |  | 
10 | CCOc1c2c(c(OCC)c3ccccc13)C(=O)N(c1ccc(CC(=O)O)cc1Br)C2 | 5.01 |  | Activity (Rattus norvegicus [4]): 47%
11 | CCOc1c2c(c(OCC)c3ccccc13)C(=O)N(c1ccc(CC(=O)O)c(C)c1)C2 | > 1000 |  | 
12 | CC(C)Oc1c2c(c(OC(C)C)c3ccccc13)C(=O)N(c1ccc(CC(=O)O)cc1)C2 | 39.8 | 398 | 
13 | CCCCCCOc1c2c(c(OCCCCCC)c3ccccc13)C(=O)N(c1ccc(CC(=O)O)cc1)C2 | > 1000 | > 6310 | 
14 | CCOc1c2c(c(OCC)c3ccccc13)C(=O)N(c1ccc(CC(=O)O)cc1)C2=O | 25.1 | 158 | IC50 (Cytochrome P450 1A2): 65000 nM; IC50 (Cytochrome P450 2C19): > 100000 nM; IC50 (Cytochrome P450 2C9): > 100000 nM; IC50 (Cytochrome P450 2D6): 42000 nM; IC50 (Cytochrome P450 3A4 [5]): > 100000 nM; IC50 (Cytochrome P450 3A4 [6]): > 100000 nM; CLH [7]: < 0.5 mL/min/g; CLH [8]: < 0.5 mL/min/g; CL/F [9]: 0.2 mL/min/kg; Vdss (Rattus norvegicus [10]): 0.28 L/kg; half-life [11]: 19.9 h
15 | CCOc1c2c(c(OCC)c3ccccc13)C(=O)N(c1ccc(CC(=O)O)cc1)C2 | 20 | 79.4 | CL/F [9]: 0.6 mL/min/kg; Vdss (Rattus norvegicus [10]): 0.3 L/kg; half-life [11]: 8.5 h; ED50 (Rattus norvegicus [12]): 1.5 mg/kg; concentration [13]: 5 to 11 µM; Activity (Rattus norvegicus [14]): inactive
16 | NCC1(CC(=O)O)CCCCC1 [GABAPENTIN] |  |  | inhibition in vivo at 30 mg/kg (Rattus norvegicus [15]): 100%
17 | CCOc1c2c(c(OCC)c3ccccc13)C(=O)N(c1ccc(CC(=O)O)cc1C)C2 | 7.94 |  | Activity (Rattus norvegicus [2]): 19%
18 | CCOc1c2c(c(OCC)c3cc(C)ccc13)C(=O)N(c1ccc(CC(=O)O)cc1)C2=O | 20 | 158 | half-life [11]: 31.7 h; Activity (Rattus norvegicus [4]): 76%
19 | CCOc1c2c(c(OCC)c3ncccc13)C(=O)N(c1ccc(CC(=O)O)cc1)C2=O | > 1000 | 31.6 | 
20 | Cc1ccc(-c2cc(C(F)(F)F)nn2-c2ccc(S(N)(=O)=O)cc2)cc1 [CELECOXIB] |  |  | Activity (Rattus norvegicus [4]): Active; inhibition in vivo at 30 mg/kg (Rattus norvegicus [16]): 100%
21 | CCOc1c2c(c(OCC)c3ccccc13)C(=O)N(c1ccc(C(C)C(=O)O)cc1)C2 (stereo unspecified) | > 1000 | 200 | 
22 | CCCOc1c2c(c(OCCC)c3ccccc13)C(=O)N(c1ccc(CC(=O)O)cc1)C2 | 126 | 631 | 
